Source: publication PMC5908784, “Extracellular loops 2 and 3 of the calcitonin receptor selectively modify agonist binding and efficacy” (Biochemical Pharmacology, 2018)
Changes are numbered by the printed parent chain. Where a SMILES comes first, the peptide text is derived from it. Bridges are numbered along the chain shown (N, C = ends).

Key:
Test in all cases: ERK1/2 phosphorylation
Format in all cases: cell-based
[1] = biological target: T1, hCTR V357A (Homo sapiens, UniProt P30988, V357A); conditions: CV1-FlpIn cells, mean ± S.E.M.; for Emax: pERK maximal response
T1 construct: c-Myc (N); expressed in transfected cells
T1 sequence (P30988 25-474 V357A): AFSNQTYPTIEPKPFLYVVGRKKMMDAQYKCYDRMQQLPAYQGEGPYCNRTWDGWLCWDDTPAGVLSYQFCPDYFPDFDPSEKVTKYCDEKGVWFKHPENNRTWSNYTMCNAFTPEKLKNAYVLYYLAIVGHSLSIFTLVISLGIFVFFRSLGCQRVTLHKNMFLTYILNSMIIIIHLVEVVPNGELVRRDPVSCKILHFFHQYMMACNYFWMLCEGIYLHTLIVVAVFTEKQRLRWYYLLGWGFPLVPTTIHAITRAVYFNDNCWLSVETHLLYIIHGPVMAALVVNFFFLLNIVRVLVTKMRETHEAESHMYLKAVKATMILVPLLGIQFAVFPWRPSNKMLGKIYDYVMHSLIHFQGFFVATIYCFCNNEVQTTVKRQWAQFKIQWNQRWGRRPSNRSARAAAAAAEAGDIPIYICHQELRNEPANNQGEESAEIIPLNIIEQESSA
In short: (§1)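 First, cells (2.5 × 10^4 per well) were plated and left overnight. Agonist concentration-response data were then scaled to the peak signal given by 10% FBS at 6 min. Finally, a 3-parameter logistic equation yielded EC50 and Emax.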

[2] = biological target: T2, hCTR WT (Homo sapiens, UniProt P30988); conditions: CV1-FlpIn cells, mean ± S.E.M.; for Emax: pERK maximal response; for EC50: pERK, three-parameter logistic fit
T2 construct: expressed in transfected cells
T2 sequence (P30988 25-474): T1 sequence (P30988 25-474 V357A) with A333V
In short: as §1

[3] = biological target: T3, hCTR I300A (Homo sapiens, UniProt P30988, I300A); conditions: CV1-FlpIn cells, mean ± S.E.M.; for Emax: pERK maximal response; for EC50: pERK, three-parameter logistic fit
T3 construct: c-Myc (N); expressed in transfected cells
T3 sequence (P30988 25-474 I300A): T1 sequence (P30988 25-474 V357A) with I276A, A333V
In short: as §1

[4] = biological target: T4, hCTR L368A (Homo sapiens, UniProt P30988, L368A); conditions: CV1-FlpIn cells, mean ± S.E.M.; for Emax: pERK maximal response; for EC50: pERK, three-parameter logistic fit
T4 construct: c-Myc (N); expressed in transfected cells
T4 sequence (P30988 25-474 L368A): T1 sequence (P30988 25-474 V357A) with A333V, L344A
In short: as §1

[5] = biological target: T5, hCTR V375A (Homo sapiens, UniProt P30988, V375A); conditions: CV1-FlpIn cells, mean ± S.E.M.; for Emax: pERK maximal response; for EC50: pERK, three-parameter logistic fit
T5 construct: c-Myc (N); expressed in transfected cells
T5 sequence (P30988 25-474 V375A): T1 sequence (P30988 25-474 V357A) with A333V, V351A
In short: as §1

Row | EC50 [2] [nM] | EC50 [3] [nM] | EC50 [4] [nM] | EC50 [5] [nM] | EC50 ([1]; pERK, three-parameter logistic fit) [nM] | Compound | Emax [1] [%] | Emax [2] [%] | Emax [3] [%] | Emax [4] [%] | Emax [5] [%]
1 |  |  |  |  |  | CC[C@H](C)[C@H](NC(=O)[C@H](C)NC(=O)[C@@H](NC(=O)[C@H](CCC(N)=O)NC(=O)[C@@H]1CCCN1C(=O)[C@H](Cc1ccccc1)NC(=O)[C@@H](NC(=O)[C@H](Cc1c[nH]cn1)NC(=O)[C@H](Cc1ccccc1)NC(=O)[C@H](CCCCN)NC(=O)[C@H](CC(N)=O)NC(=O)[C@H](Cc1ccccc1)NC(=O)[C@H](CC(=O)O)NC(=O)[C@H](CCC(N)=O)NC(=O)[C@@H](NC(=O)[C@H](Cc1ccc(O)cc1)NC(=O)[C@@H](NC(=O)CNC(=O)[C@H](CC(C)C)NC(=O)[C@H](CCSC)NC(=O)[C@@H]1CSSC[C@H](N)C(=O)NCC(=O)N[C@@H](CC(N)=O)C(=O)N[C@@H](CC(C)C)C(=O)N[C@@H](CO)C(=O)N[C@@H]([C@@H](C)O)C(=O)N1)[C@@H](C)O)[C@@H](C)O)[C@@H](C)O)[C@@H](C)O)C(=O)NCC(=O)N[C@H](C(=O)NCC(=O)N[C@@H](C)C(=O)N1CCC[C@H]1C(N)=O)C(C)C [hCT] | 53 ± 5 | 100 ± 3 | 65 ± 6 | 126 ± 7 | 67 ± 3
2 | 77.6 | 67.6 | 85.1 | 110 |  | CC(C)C[C@H](NC(=O)CNC(=O)[C@H](C)NC(=O)[C@H](CC(C)C)NC(=O)[C@H](CCCNC(=N)N)NC(=O)[C@H](Cc1cnc[nH]1)NC(=O)[C@@H](NC(=O)[C@@H](NC(=O)[C@@H]1CSSC[C@H](NC(=O)[C@H](C)N)C(=O)N[C@@H](CC(=O)O)C(=O)N[C@@H]([C@@H](C)O)C(=O)N[C@@H](C)C(=O)N[C@@H]([C@@H](C)O)C(=O)N1)C(C)C)[C@@H](C)O)C(=O)N[C@@H](CC(C)C)C(=O)N[C@@H](CO)C(=O)N[C@@H](CCCNC(=N)N)C(=O)N[C@@H](CO)C(=O)NCC(=O)NCC(=O)N[C@H](C(=O)N[C@H](C(=O)N[C@@H](CCCCN)C(=O)N[C@@H](CC(N)=O)C(=O)N[C@@H](CC(N)=O)C(=O)N[C@@H](Cc1ccccc1)C(=O)N[C@H](C(=O)N1CCC[C@H]1C(=O)N[C@H](C(=O)N[C@@H](CC(N)=O)C(=O)N[C@H](C(=O)NCC(=O)N[C@@H](CO)C(=O)N[C@@H](CCCCN)C(=O)N[C@@H](C)C(=O)N[C@@H](Cc1ccccc1)C(N)=O)C(C)C)[C@@H](C)O)C(C)C)C(C)C)C(C)C [hαCGRP] |  | 100 ± 6 | 61 ± 13 | 84 ± 16 | 58 ± 7
3 | 1.12 | 0.282 | 1.95 | 2.63 | 3.72 | CSCC[C@H](NC(=O)CNC(=O)[C@H](CO)NC(=O)[C@H](Cc1ccccc1)NC(=O)[C@H](CCCNC(=N)N)NC(=O)[C@H](Cc1c[nH]cn1)NC(=O)[C@H](Cc1ccccc1)NC(=O)[C@H](CC(N)=O)NC(=O)[C@H](CC(N)=O)NC(=O)[C@H](CC(C)C)NC(=O)[C@H](CC(N)=O)NC(=O)[C@H](CCCNC(=N)N)NC(=O)[C@H](Cc1c[nH]c2ccccc12)NC(=O)[C@H](Cc1ccc(O)cc1)NC(=O)[C@H](C)NC(=O)[C@H](CO)NC(=O)[C@H](CC(C)C)NC(=O)[C@@H](NC(=O)[C@@H]1CSSC[C@H](N)C(=O)N[C@@H](CO)C(=O)N[C@@H](CC(N)=O)C(=O)N[C@@H](CC(C)C)C(=O)N[C@@H](CO)C(=O)N[C@@H]([C@@H](C)O)C(=O)N1)C(C)C)C(=O)NCC(=O)N[C@@H](Cc1ccccc1)C(=O)NCC(=O)N1CCC[C@H]1C(=O)N[C@@H](CCC(=O)O)C(=O)N[C@H](C(=O)N1CCC[C@H]1C(N)=O)[C@@H](C)O [pCT] (H-CSNLSTCVLSAYWRNLNNFHRFSGMGFGPETP-NH2; disulfide 1-7) | 83 ± 10 | 100 ± 3 | 54 ± 3 | 159 ± 11 | 89 ± 4
4 |  |  |  |  |  | CC(C)C[C@H](NC(=O)[C@H](CC(N)=O)NC(=O)[C@H](CC(N)=O)NC(=O)[C@H](CO)NC(=O)[C@H](CO)NC(=O)[C@H](CCCNC(=N)N)NC(=O)[C@@H](NC(=O)[C@H](CC(C)C)NC(=O)[C@H](Cc1ccccc1)NC(=O)[C@H](CC(N)=O)NC(=O)[C@H](C)NC(=O)[C@H](CC(C)C)NC(=O)[C@H](CCCNC(=N)N)NC(=O)[C@H](CCC(N)=O)NC(=O)[C@@H](NC(=O)[C@H](C)NC(=O)[C@@H]1CSSC[C@H](NC(=O)[C@@H](N)CCCCN)C(=O)N[C@@H](CC(N)=O)C(=O)N[C@@H]([C@@H](C)O)C(=O)N[C@@H](C)C(=O)N[C@@H]([C@@H](C)O)C(=O)N1)[C@@H](C)O)C(C)C)C(=O)NCC(=O)N1CCC[C@H]1C(=O)N[C@H](C(=O)N[C@@H](CC(C)C)C(=O)N1CCC[C@H]1C(=O)N1CCC[C@H]1C(=O)N[C@H](C(=O)N[C@@H](CC(N)=O)C(=O)N[C@H](C(=O)NCC(=O)N[C@@H](CO)C(=O)N[C@@H](CC(N)=O)C(=O)N[C@H](C(=O)N[C@@H](Cc1ccc(O)cc1)C(N)=O)[C@@H](C)O)C(C)C)[C@@H](C)O)C(C)C [rAmy] | 40 ± 8 | 100 ± 5 | 44 ± 5 | 82 ± 8 | 77 ± 13
5 |  |  |  |  |  | CC(C)C[C@H](NC(=O)[C@H](CCCCN)NC(=O)CNC(=O)[C@H](CC(C)C)NC(=O)[C@@H](NC(=O)[C@@H]1CSSC[C@H](N)C(=O)N[C@@H](CO)C(=O)N[C@@H](CC(N)=O)C(=O)N[C@@H](CC(C)C)C(=O)N[C@@H](CO)C(=O)N[C@@H]([C@@H](C)O)C(=O)N1)C(C)C)C(=O)N[C@@H](CO)C(=O)N[C@@H](CCC(N)=O)C(=O)N[C@@H](CCC(=O)O)C(=O)N[C@@H](CC(C)C)C(=O)N[C@@H](Cc1c[nH]cn1)C(=O)N[C@@H](CCCCN)C(=O)N[C@@H](CC(C)C)C(=O)N[C@@H](CCC(N)=O)C(=O)N[C@H](C(=O)N[C@@H](Cc1ccc(O)cc1)C(=O)N1CCC[C@H]1C(=O)N[C@@H](CCCNC(=N)N)C(=O)N[C@H](C(=O)N[C@@H](CC(N)=O)C(=O)N[C@H](C(=O)NCC(=O)N[C@@H](CO)C(=O)NCC(=O)N[C@H](C(=O)N1CCC[C@H]1C(N)=O)[C@@H](C)O)[C@@H](C)O)[C@@H](C)O)[C@@H](C)O [sCT] | 82 ± 7 | 100 ± 3 | 63 ± 3 | 140 ± 6 | 70 ± 3
